Assay results taken from the supplement of paper PMC11061612.

Experiments:
Assay in all cases: Bliss excess, mean over the matrix (fraction); higher = more synergy
[1] = test system: HuCCT1 (Biliary Tract Carcinoma)
In short: (§1)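 Cell lines in DMEM/F12 or RPMI with 10% FBS were plated in 1536-well plates, held 24 hours at 37°C, 5% CO2, then given two-drug dose matrices for 72 hours (DMSO typically 0.2%). Viability was read by CellTiter-Glo 2.0 luminescence and scaled as inhibition from 0 (vehicle wells) to 1 (blank wells). Combination Emax is the second-highest inhibition in the matrix; Bliss excess is observed combination effect minus expected EA + EB − EA·EB, EA and EB being single-agent effects.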

[2] = test system: LCLC-97TM1 (Non-Small Cell Lung Carcinoma)
In short: as §1

[3] = test system: L-428 (Hodgkin's Lymphoma)
In short: as §1

[4] = test system: OVCAR-5 (Ovarian Carcinoma)
In short: as §1

[5] = test system: LOXIMVI (Melanoma)
In short: as §1

[6] = test system: OV-56 (Ovarian Carcinoma)
In short: as §1

[7] = test system: OE21 (Esophageal Squamous Cell Carcinoma)
In short: as §1

[8] = test system: KS-1 (Glioblastoma)
In short: as §1

[9] = test system: SW1710 (Bladder Carcinoma)
In short: as §1

[10] = test system: MPP-89 (Mesothelioma)
In short: as §1

[11] = test system: NCI-H524 (Small Cell Lung Carcinoma)
In short: as §1

[12] = test system: CAL-33 (Oral Cavity Carcinoma)
In short: as §1

[13] = test system: HuH-7 (Hepatocellular Carcinoma)
In short: as §1

[14] = test system: BE-13 (T-Lymphoblastic Leukemia)
In short: as §1

[15] = test system: WSU-NHL (B-Cell Non-Hodgkin's Lymphoma)
In short: as §1

[16] = test system: ESS-1 (Other Solid Carcinomas)
In short: as §1

[17] = test system: A673 (Ewing's Sarcoma)
In short: as §1

[18] = test system: SW1573 (Lung Adenocarcinoma)
In short: as §1

[19] = test system: FTC-133 (Thyroid Gland Carcinoma)
In short: as §1

[20] = test system: Hs-746T (Gastric Carcinoma)
In short: as §1

Row | SMILES | Bliss excess [1] | Bliss excess [2] | Bliss excess [3] | Bliss excess [4] | Bliss excess [5] | Bliss excess [6] | Bliss excess [7] | Bliss excess [8] | Bliss excess [9] | Bliss excess [10] | Bliss excess [11] | Bliss excess [12] | Bliss excess [13] | Bliss excess [14] | Bliss excess [15] | Bliss excess [16] | Bliss excess [17] | Bliss excess [18] | Bliss excess [19] | Bliss excess [20]
1 | CCN(CCO)CCCOc1ccc2c(Nc3cc(CC(=O)Nc4cccc(F)c4)[nH]n3)ncnc2c1 [AZD2811] + C=CCn1c(=O)c2cnc(Nc3ccc(N4CCN(C)CC4)cc3)nc2n1-c1cccc(C(C)(C)O)n1 [AZD1775] (first compound max 1 µM, partner max 1 µM) | -0.0344 | 0.033 | 0.0106 | -0.0616 | 0.0351 | -0.0152 | -0.0577 | 0.0223 | 0.0084 | -0.0173 | -0.0253 | -0.0365 | -0.0232 | -0.0298 | -0.0761 | 0.042 | -0.0838 | 0.0297 | 0.0641 | 0.0312
2 | Cn1cnc2c(F)c(Nc3ccc(Br)cc3Cl)c(C(=O)NOCCO)cc21 [Selumetinib] + C=CCn1c(=O)c2cnc(Nc3ccc(N4CCN(C)CC4)cc3)nc2n1-c1cccc(C(C)(C)O)n1 [AZD1775] (first compound max 10 µM, partner max 1 µM) | -0.0385 | -0.0335 | -0.0744 | -0.0074 | 0.0822 | -0.0766 | -0.0399 | -0.0037 | -0.0409 | -0.0131 | -0.0452 | -0.0194 | -0.0509 | -0.0423 | -0.0066 | -0.052 | -0.0806 | -0.0582 | -0.0465 | -0.0275
3 | CC1(C)CCC(CN2CCN(c3ccc(C(=O)NS(=O)(=O)c4ccc(NCC5CCOCC5)c([N+](=O)[O-])c4)c(Oc4cnc5[nH]ccc5c4)c3)CC2)=C(c2ccc(Cl)cc2)C1 [Venetoclax] + Cn1cnc2c(F)c(Nc3ccc(Br)cc3Cl)c(C(=O)NOCCO)cc21 [Selumetinib] (first compound max 1 µM, 7x7, partner max 3 µM) | -0.0128 | -0.0023 | -0.0042 | -0.069 | -0.0228 | -0.0188 | 0.0044 | 0.0043 | -0.0134 | -0.0235 | -0.0392 | -0.0292 | -0.055 | -0.0418 | -0.131 | -0.0393 | 0.0048 | -0.0621 | -0.0232 | -0.0192
4 | CC1(C)CCC(CN2CCN(c3ccc(C(=O)NS(=O)(=O)c4ccc(NCC5CCOCC5)c([N+](=O)[O-])c4)c(Oc4cnc5[nH]ccc5c4)c3)CC2)=C(c2ccc(Cl)cc2)C1 [Venetoclax] + C=CCn1c(=O)c2cnc(Nc3ccc(N4CCN(C)CC4)cc3)nc2n1-c1cccc(C(C)(C)O)n1 [AZD1775] (first compound max 1 µM, partner max 1 µM) | -0.0281 | -0.0364 | -0.0298 | 0.0332 | 0.0417 | -0.0114 | 0.0095 | 0.0134 | -0.0519 | 0.1 | 0.0089 | -0.0631 | -0.0247 | 0.0227 | -0.0036 | 0.0835 | 0.112 | -0.0427 | 0.0065 | -0.115
5 | CC1(C)CCC(CN2CCN(c3ccc(C(=O)NS(=O)(=O)c4ccc(NCC5CCOCC5)c([N+](=O)[O-])c4)c(Oc4cnc5[nH]ccc5c4)c3)CC2)=C(c2ccc(Cl)cc2)C1 [Venetoclax] + C[C@@H](Nc1cc(F)cc(F)c1)c1cc(C(=O)N(C)C)cc2c(=O)cc(N3CCOCC3)oc12 [AZD8186] (first compound max 1 µM, 7x7, partner max 3 µM) | -0.0383 | -0.0368 | 0.0037 | -0.0495 | -0.0243 | -0.0178 | -0.0166 | 0.0007 | -0.0826 | -0.0096 | -0.009 | -0.0241 | -0.0304 | -0.0369 | 0.0209 | -0.0118 | -0.023 | -0.0556 | -0.0168 | -0.004
6 | COc1nnc2ccc(N3CCC(c4ccc(OCCN5CCN(C)C(=O)[C@H]5C)cc4)CC3)nn12 [AZD5153] + C=CCn1c(=O)c2cnc(Nc3ccc(N4CCN(C)CC4)cc3)nc2n1-c1cccc(C(C)(C)O)n1 [AZD1775] (first compound max 1 µM, partner max 1 µM) | -0.0778 | -0.0845 | -0.0411 | -0.0591 | -0.0494 | -0.0105 | -0.0497 | -0.0308 | -0.0582 | -0.0669 | -0.0337 | -0.0757 | 0.0129 | -0.0879 | -0.0255 | -0.0749 | -0.055 | -0.0388 | -0.0099 | -0.0556
7 | NC1(C(=O)N[C@@H](CCO)c2ccc(Cl)cc2)CCN(c2ncnc3[nH]ccc23)CC1 [Capivasertib] + CC(C)n1c(=O)n(C)c2cnc3cc(F)c(-c4ccc(OCCCN5CCCCC5)nc4)cc3c21 [AZD1390] (first compound max 10 µM, 7x7, partner max 0.3 µM) | -0.0447 | -0.0278 | -0.0352 | -0.0829 | -0.0063 | -0.044 | -0.0474 | -0.0969 | -0.0482 | -0.0069 | -0.0033 | -0.0018 | -0.045 | -0.0455 | -0.0418 | -0.0078 | -0.0885 | -0.0724 | -0.0486 | -0.0445
8 | NC1(C(=O)N[C@@H](CCO)c2ccc(Cl)cc2)CCN(c2ncnc3[nH]ccc23)CC1 [Capivasertib] + Cn1cnc2c(F)c(Nc3ccc(Br)cc3Cl)c(C(=O)NOCCO)cc21 [Selumetinib] (first compound max 10 µM, 7x7, partner max 10 µM) | 0.01 | 0.0752 | -0.0127 | -0.028 | 0.107 | 0.01 | 0.0761 | 0.0426 | 0.0396 | -0.0188 | 0.0158 | 0.0926 | -0.0428 | 0.0265 | 0.0544 | -0.0183 | 0.0877 | -0.0111 | 0.0156 | 0.0736
9 | COc1nnc2ccc(N3CCC(c4ccc(OCCN5CCN(C)C(=O)[C@H]5C)cc4)CC3)nn12 [AZD5153] + CCN(CCO)CCCOc1ccc2c(Nc3cc(CC(=O)Nc4cccc(F)c4)[nH]n3)ncnc2c1 [AZD2811] (first compound max 1 µM, 7x7, partner max 1 µM) | -0.0331 | -0.0325 | 0.0085 | -0.0781 | -0.0129 | -0.0288 | -0.0315 | -0.0317 | -0.052 | -0.0396 | -0.0138 | -0.128 | -0.051 | -0.0637 | -0.0807 | -0.0091 | -0.0389 | -0.0609 | -0.0014 | -0.058
10 | CN(C)CCCOc1ccc(-c2ccc3ncc4c(c3c2)n(C2CCOCC2)c(=O)n4C)cn1 [AZD0156] + CCN(CCO)CCCOc1ccc2c(Nc3cc(CC(=O)Nc4cccc(F)c4)[nH]n3)ncnc2c1 [AZD2811] (first compound max 1 µM, 7x7, partner max 1 µM) | -0.0274 | 0.0765 | 0.0314 | -0.0281 | -0.0125 | -0.0176 | -0.0048 | 0.0228 | -0.0288 | -0.0402 | -0.0083 | -0.0139 | -0.0381 | -0.0908 | -0.005 | 0.0179 | 0.0262 | -0.0205 | -0.0214 | -0.0747
11 | COc1cccc(OCCCN)c1-c1cc(Nc2cnc(C#N)cn2)n[nH]1 [Prexasertib] + CCc1c2c(nc3ccc(O)cc13)-c1cc3c(c(=O)n1C2)COC(=O)[C@]3(O)CC [SN-38] (first compound max 1 µM, 7x7, partner max 0.3 µM) | -0.0044 | 0.0863 | -0.0235 | -0.0162 | -0.0455 | 0.009 | -0.0509 | -0.0848 | 0.0504 | 0.0256 | 0.0554 | -0.0329 | 0.122 | 0.0072 | -0.0073 | -0.0183 | -0.0105 | -0.0144 | -0.0278 | -0.0006
12 | NC1(C(=O)N[C@@H](CCO)c2ccc(Cl)cc2)CCN(c2ncnc3[nH]ccc23)CC1 [Capivasertib] + CC(=O)c1c(C)c2cnc(Nc3ccc(N4CCNCC4)cn3)nc2n(C2CCCC2)c1=O [Palbociclib] (first compound max 10 µM, 7x7, partner max 10 µM) | -0.0067 | 0.0152 | -0.0092 | -0.0396 | 0.0391 | 0.0301 | 0.0379 | -0.0656 | -0.009 | -0.0553 | 0.0047 | 0.0918 | 0.0124 | -0.0485 | -0.0671 | -0.0479 | -0.018 | -0.0253 | -0.011 | -0.0322
13 | CN(CCO)CC[C@H](CSc1ccccc1)Nc1ccc(S(=O)(=O)NC(=O)c2ccc(N3CCC([C@@H](O)c4ccccc4-c4ccc(Cl)cc4)CC3)cc2)cc1S(=O)(=O)C(F)(F)F [AZD4320] + CN(C)CCCOc1ccc(-c2ccc3ncc4c(c3c2)n(C2CCOCC2)c(=O)n4C)cn1 [AZD0156] (first compound max 1 µM, 7x7, partner max 1 µM) | -0.0539 | -0.0244 | 0.0464 | -0.0527 | 0.0015 | -0.015 | -0.0207 | -0.0136 | -0.0302 | -0.0339 | 0.0124 | 0.007 | -0.0129 | -0.0325 | -0.0238 | 0.039 | 0.0419 | -0.0585 | 0.0392 | 0.0037
14 | Cn1cnc2c(F)c(Nc3ccc(Br)cc3Cl)c(C(=O)NOCCO)cc21 [Selumetinib] + C[C@@H]1COCCN1C2=NC(=NC(=C2)C3(CC3)[S@](=N)(=O)C)C4=C5C=CNC5=NC=C4 [AZD6738] (first compound max 10 µM, 7x7, partner max 10 µM) | -0.0164 | -0.0043 | -0.0311 | -0.0236 | 0.0322 | -0.0239 | 0.0134 | -0.0315 | -0.0481 | -0.0424 | -0.0293 | 0.0115 | -0.0221 | -0.0181 | -0.0042 | 0.024 | -0.0537 | -0.0587 | -0.0828 | 0.0382
